Values joined by “and” are separate entries in the source; they are usually repeats but may differ in a detail not shown here. Identical values can stand only once.
Key:
[1] = system: nalidixic acid-resistant Salmonella Enterica serovar Typhimurium; experiment: Wing wash model: Salmonella counts in rinsate of experimentally contaminated broiler wings; format: cell-based
Experimental: As a non-limiting example, the efficacy of Sx on the reduction of nalidixic acid-resistant Salmonella spp. on experimentally contaminated broiler carcasses (using a wing wash model) was tested. Sx was tested at 100 ppm and 200 ppm, with or without lecithin and was compared with an untreated negative control group and peracetic Acid (PAA) at 200 ppm as a commercial comparator. […] Almost 0.6 to 3.0 log reduction has been observed in previous iterations. During those studies, the effectiveness of Sx was studied at different time intervals and fixed time interval. […] Whereas, based on literature and food safety inspection services (USDA) directive 7120.1, PAA has been recommended with the dose range of 50 ppm to 2000 ppm. Under field conditions, most of the establishments use 200 ppm as a whole carcass rinse. Therefore, in this iteration, Sx was compared with PAA at 200 ppm level. In this study, Sx was tested at 1.25% and 2.5% level which are equivalent to 100 ppm and 200 ppm of propionic acid concentration. Lecithin was added to the Sx solution at the rate of 0.02%. Lecithin is believed to enhance the cell wall penetration of propionic acid and isoamyl hexanoate leading to better antimicrobial activity.
For this study, a WHIRL-PAK® bag containing one pair of chicken wings was the experimental unit. On approximately day 47 of the broilers age, approximately 54 broilers were euthanized by severing the jugular vein after euthanization. The carcass was thoroughly washed using hot water. The feathers were removed using a mechanical plucker. The wings were separated from the whole carcass and preserved in a cooler containing ice. Each treatment group was represented by nine sample bags (replicates) containing one pair of wings. Three sample bags from each treatment group were pooled together and identified as first, second and third set as shown in Table 3.
To start with, eighteen pairs of wings were brought to the hood and sprayed with Salmonella typhimurium (Nalidixic Acid Resistant [NAR]) inoculum at the rate of 10 mL per pair. The carcasses were allowed to dry for 15 minutes. Following drying, eighteen pairs of wings were inserted into WHIRL-PAK bags at the rate of one pair per WHIRL-PAK bag. T1 bags were added with non-medicated, sterilized reverse osmosis (SRO) water at the rate of one liter per bag. T2-T6 bags were added with respective medicated, SRO water at the rate of one liter per bag. All the bags were incubated for 15 mins in a cooler containing ice cubes. After 15 minutes, the carcass in each bag was removed from the SRO water bag and inserted into a fresh WHIRL-PAK bag.
Approximately 100 mL of buffered peptone water was added into each bag and agitated for one minute. […]

[2] = system: range of target microorganisms; conditions: both in gas and MIC assays; cited from earlier work

SMILES	Salmonella count (MPN) ([1]; Salmonella count per mL of wing wash rinsate after 15 mins incubation in medicated SRO water, mean of 9 replicates, concentration in label)	MPN (Actual numbers) ([1]; Salmonella count per mL of wing wash rinsate after 15 mins incubation, concentration in label)	% Reduction ([1]; decrease of Salmonella count compared to untreated control, 15 mins incubation, P<0.05)	Log Reduction ([1]; overall reduction of salmonella count compared to untreated control, 15 mins incubation) [Log]	Bioactivity by itself [2]
CC(=O)OO [PAA 200 ppm, peracetic Acid]	6.51E+05±5.68E+05 cfu/mL and 6.51E+05 cfu/mL	650,694	84% and 84.55%	0.77	
CC(C)C(=O)O [isobutyric acid]					some limited bioactivity
